The text below walks through data of ChEMBL document CHEMBL3621127, “8-Hydroxyquinoline: a privileged structure with a broad-ranging pharmacological potential” (Medchemcomm, 2015).

Some results are limits rather than exact numbers.

A short description of data set [1]: Inhibition of Mycobacterium tuberculosis Fructose 1,6-bisphosphate aldolase class 2 expressed in Escherichia coli BL21(DE3) assessed as cleavage of fructose 1,6-bisphosphate by fluorescence assay.
Data set [2] has as its system Leishmania donovani. Put plainly: Antileishmanial activity against amastigote form of Leishmania donovani MHOM//IN/80/Dd8 infected in mouse J774A.1 cells after 72 hrs by luciferase reporter gene assay. In kind it is functional, organism-based. As to conditions: MHOM//IN/80/Dd8, J774.A1, 72 h. In general terms: Reporter assays use an easily measured gene product as a stand-in for the process of interest.

Data set [3] in a line: Selectivity index, ratio of CC50 for mouse J774A.1 cells to IC50 for amastigote form of Leishmania donovani MHOM//IN/80/Dd8 infected in mouse J774A.1 cells. The format is functional.
Data set [4] is described as follows: Acute toxicity in po dosed KM mouse measured for 14 days. The format is organism-based. The following applies: in vivo.
In data set [5] the target is Amyloid-beta precursor protein (Homo sapiens, UniProt P05067). Put plainly: Inhibition of self-induced amyloid beta (1 to 42) (unknown origin) aggregation after 48 hrs by ThT assay.
Sequence of Amyloid-beta precursor protein (P05067 whole entry): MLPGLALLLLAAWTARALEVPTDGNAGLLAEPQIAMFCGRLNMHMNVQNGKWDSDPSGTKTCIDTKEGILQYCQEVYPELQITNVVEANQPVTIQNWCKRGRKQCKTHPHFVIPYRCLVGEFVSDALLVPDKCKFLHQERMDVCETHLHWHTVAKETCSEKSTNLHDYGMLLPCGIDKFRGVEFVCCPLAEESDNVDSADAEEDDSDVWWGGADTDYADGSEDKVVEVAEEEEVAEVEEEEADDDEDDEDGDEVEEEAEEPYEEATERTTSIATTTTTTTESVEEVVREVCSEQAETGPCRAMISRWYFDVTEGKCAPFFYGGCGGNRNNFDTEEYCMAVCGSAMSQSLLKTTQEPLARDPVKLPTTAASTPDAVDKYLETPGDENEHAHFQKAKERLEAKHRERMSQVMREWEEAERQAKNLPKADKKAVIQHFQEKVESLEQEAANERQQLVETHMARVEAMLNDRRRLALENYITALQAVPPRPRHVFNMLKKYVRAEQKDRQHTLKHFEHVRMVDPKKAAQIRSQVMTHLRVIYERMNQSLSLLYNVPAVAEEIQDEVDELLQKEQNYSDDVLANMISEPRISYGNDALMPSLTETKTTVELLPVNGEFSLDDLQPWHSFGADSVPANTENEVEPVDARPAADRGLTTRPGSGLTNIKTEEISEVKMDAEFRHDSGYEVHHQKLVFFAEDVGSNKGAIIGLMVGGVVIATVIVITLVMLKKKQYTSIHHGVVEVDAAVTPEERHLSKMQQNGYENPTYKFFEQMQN

Usually IC50 stands for the concentration at which inhibition is half-maximal. As for `O=C(O)c1ccc2cccc(O)c2n1`, the IC50 in data set [1] came to 10 µM.
The compound `COc1ccc(OC)c(/C=C/NC(=O)c2cc(O)c3cccc(OC)c3n2)c1` showed an IC50 in data set [2] of 3.75 µM. For the same compound, the “Ratio CC50/IC50” value in data set [3] came out at 25.27.
On the same counts, the results for `CCCCCCCCCCCCCCCCOP(=O)([O-])OCC[N+](C)(C)C` [MILTEFOSINE] are 12.4 µM and 4.1.
Usually LD50 stands for the dose at which mortality reaches 50%. In turn, `Oc1ccc(/C=C/c2ccc(O)c3ncccc23)cc1` came in with an LD50 at 336 h in data set [4] of over 2000 mg/kg. The same compound came in with an IC50 in data set [5] of 8.5 µM.
